22 compounds from patent US20090105217A1, “2-PHENYL-5-AMINO-1,3,4-OXADIAZOLES AND THEIR USE AS NICOTINIC ACETYLCHOLINE RECEPTOR LIGANDS” (priority 2007, published 2009) can be followed below.

A value given as a limit tells only on which side of the number the result lay.

The target of this experiment is T1, human α7 nAChR (Homo sapiens, UniProt P36544).
T1 construct: host or cells: GH4C1 cells (pituitary tumor, immortalized cell line)
The experiment in a line: α7 nAChR FLIPR (Fluorometric Imaging Plate Reader) Ca2+ assay, agonist EC50. It counts as cell-based. Conditions: for EC50: GH4C1 cells stably transfected with human α7 nAChR, Fluo-4 Ca2+ fluorescence, Examples 194 to 205 tested as the HCl salt, read-out: pEC50 value (negative logarithm of the agonist EC50) (converted); for activity in the alpha 7 assay: alpha 7 assay described in the Examples. An outline of the steps: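 GH4C1 cells stably expressing human α7 nAChR, loaded with 2 μM Fluo-4 for 45–60 min at 37 °C in HEPES buffer pH 7.3 with 2 mM CaCl2 and 2.5 mM probenecid. Peak calcium fluorescence (ex 488, em 510–580 nm) after compound addition fitted for agonist EC50, reported as pEC50.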

T1 sequence (P36544 23-502): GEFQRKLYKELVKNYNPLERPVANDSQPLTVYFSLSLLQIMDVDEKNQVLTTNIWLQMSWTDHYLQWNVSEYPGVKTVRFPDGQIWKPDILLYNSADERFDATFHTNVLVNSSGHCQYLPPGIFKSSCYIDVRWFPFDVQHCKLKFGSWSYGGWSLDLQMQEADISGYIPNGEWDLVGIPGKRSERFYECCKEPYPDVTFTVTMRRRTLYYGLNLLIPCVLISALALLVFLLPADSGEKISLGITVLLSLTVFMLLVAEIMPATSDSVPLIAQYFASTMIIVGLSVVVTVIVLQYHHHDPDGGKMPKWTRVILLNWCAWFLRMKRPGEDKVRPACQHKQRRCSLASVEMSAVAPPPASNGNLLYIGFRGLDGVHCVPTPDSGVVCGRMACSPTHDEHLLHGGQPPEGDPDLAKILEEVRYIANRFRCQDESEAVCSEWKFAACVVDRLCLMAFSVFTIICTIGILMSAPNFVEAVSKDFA

The term EC50 denotes the concentration that produces a half-maximal response. Consider `CCOc1cc(NC(=O)C2CCCCC2)ccc1-c1nnc(NCCCN2CCCCC2)o1` [Example 189, N-[3-(ethyloxy)-4-(5-{[3-(1-piperidinyl)propyl]amino}-1,3,4-oxadiazol-2-yl)phenyl]cyclohexane-carboxamide], for which the EC50 was at most 1 µM.

On to `CCOc1cc(NC(=O)c2ccccc2)ccc1-c1nnc(NCCCN2CCCCC2)o1` [Example 190, N-[3-(ethyloxy)-4-(5-{[3-(1-piperidinyl)propyl]amino}-1,3,4-oxadiazol-2-yl)phenyl]benzamide], for which the EC50 was at most 0.1 µM.

Turning to `O=C(Nc1ccc(-c2nnc(NCCCN3CCCCC3)o2)cc1)C1CCOCC1` [Example 193, N-[4-(5-{[3-(1-piperidinyl)propyl]amino}-1,3,4-oxadiazol-2-yl)phenyl]tetrahydro-2H-pyran-4-carboxamide], the EC50 is at most 1 µM.

`O=C(Nc1ccc(-c2nnc(NCCCN3CCOCC3)o2)cc1)c1c(F)cccc1F` [Example 194, 2,6-Difluoro-N-[4-(5-{[3-(4-morpholinyl)propyl]amino}-1,3,4-oxadiazol-2-yl)phenyl]benzamide]: the EC50 was at most 1 µM.

For the compound `O=C(Nc1ccc(-c2nnc(NCCCN3CCOCC3)o2)cc1)c1cccc(F)c1` [Example 195, 3-Fluoro-N-[4-(5-{[3-(4-morpholinyl)propyl]amino}-1,3,4-oxadiazol-2-yl)phenyl]benzamide], the EC50 is at most 1 µM.

In the case of `CCCC(=O)Nc1ccc(-c2nnc(NCCCN3CCOCC3)o2)c(OC)c1` [Example 199, N-[3-(Methyloxy)-4-(5-{[3-(4-morpholinyl)propyl]amino}-1,3,4-oxadiazol-2-yl)phenyl]butanamide], the EC50 is at most 1 µM.

Turning to `CCCC(=O)Nc1ccc(-c2nnc(NCCCN(CC)CC)o2)c(OC)c1` [Example 200, N-[4-(5-{[3-(Diethylamino)propyl]amino}-1,3,4-oxadiazol-2-yl)-3-(methyloxy)phenyl]butanamide], the EC50 was at most 1 µM.

In the case of `CCN(CC)CCCNc1nnc(-c2ccc(NC(=O)c3ccc(F)cc3)cc2OC)o1` [Example 202, N-[4-(5-{[3-(Diethylamino)propyl]amino}-1,3,4-oxadiazol-2-yl)-3-(methyloxy)phenyl]-4-fluorobenzamide], the EC50 is at most 1 µM.

Take `CCN(CC)CCCNc1nnc(-c2ccc(NC(=O)c3cccc(F)c3)cc2OC)o1` [Example 203, N-[4-(5-{[3-(Diethylamino)propyl]amino}-1,3,4-oxadiazol-2-yl)-3-(methyloxy)phenyl]-3-fluorobenzamide]: the EC50 is at most 1 µM.

With `COc1cc(NC(=O)c2cccc(F)c2)ccc1-c1nnc(NCCCN2CCOCC2)o1` [Example 204, 3-Fluoro-N-[3-(methyloxy)-4-(5-{[3-(4-morpholinyl)propyl]amino}-1,3,4-oxadiazol-2-yl)phenyl]benzamide], the EC50 was at most 1 µM.

With `CCN(CC)CCCNc1nnc(-c2ccc(NC(=O)c3cccc(F)c3)cc2)o1` [Example 209, N-[4-(5-{[3-(diethylamino)propyl]amino}-1,3,4-oxadiazol-2-yl)phenyl]-3-fluorobenzamidetrifluoroacetate], the EC50 was at most 1 µM.

For `CCN(CC)CCCNc1nnc(-c2ccc(NC(=O)c3ccc(OC)cc3)cc2OC)o1` [Example 225, N-[4-(5-{[3-(diethylamino)propyl]amino}-1,3,4-oxadiazol-2-yl)-3-(methyloxy)phenyl]-4-(methyloxy)benzamidetrifluoroacetate], the EC50 was at most 1 µM.

As for `COc1cc(NC(=O)c2c(F)cccc2F)ccc1-c1nnc(NCCCN2CCOCC2)o1` [Example 226, 2,6-difluoro-N-[3-(methyloxy)-4-(5-{[3-(4-morpholinyl)propyl]amino}-1,3,4-oxadiazol-2-yl)phenyl]benzamidetrifluoroacetate], the EC50 is at most 1 µM.

`COc1cc(NC(=O)CC(C)C)ccc1-c1nnc(NCCCN2CCOCC2)o1` [Example 229, 3-methyl-N-[3-(methyloxy)-4-(5-{[3-(4-morpholinyl)propyl]amino}-1,3,4-oxadiazol-2-yl)phenyl]butanamidetrifluoroacetate]: the EC50 is at most 1 µM.

Turning to `CCN(CC)CCCNc1nnc(-c2ccc(NC(=O)CC(C)C)cc2OC)o1` [Example 230, N-[4-(5-{[3-(diethylamino)propyl]amino}-1,3,4-oxadiazol-2-yl)-3-(methyloxy)phenyl]-3-methylbutanamidetrifluoroacetate], the EC50 is at most 1 µM.

Take `CCN(CC)CCCNc1nnc(-c2ccc(NC(=O)C3CC3)cc2OC)o1` [Example 231, N-[4-(5-{[3-(diethylamino)propyl]amino}-1,3,4-oxadiazol-2-yl)-3-(methyloxy)phenyl]cyclopro-panecarboxamidetrifluoroacetate]: the EC50 was at most 1 µM.

With `COc1cc(NC(=O)C2CCCC2)ccc1-c1nnc(NCCCN2CCOCC2)o1` [Example 234, N-[3-(methyloxy)-4-(5-{[3-(4-morpholinyl)propyl]amino}-1,3,4-oxadiazol-2-yl)phenyl]cyclopentane-carboxamidetrifluoroacetate], the EC50 was at most 1 µM.

For `CCN(CC)CCCNc1nnc(-c2ccc(NC(=O)C3CCCC3)cc2OC)o1` [Example 235, N-[4-(5-{[3-(diethylamino)propyl]amino}-1,3,4-oxadiazol-2-yl)-3-(methyloxy)phenyl]cyclo-pentanecarboxamidetrifluoroacetate], the EC50 was at most 1 µM.

Take `CN(C)CCCN(C)c1nnc(-c2ccc(NC(=O)c3ccccc3F)cc2)o1` [N-(4-{5-[[3-(dimethylamino)propyl](methyl)amino]-1,3,4-oxadiazol-2-yl}phenyl)-2-fluorobenzamide]: the “activity in the alpha 7 assay” value is recorded as “not found to have activity”.

In the case of `O=C(Nc1ccc(-c2nnc(NCCCN3CCCC(F)(F)C3)o2)cc1)c1ccccc1F` [N-[4-(5-{[3-(3,3-difluoro-1-piperidinyl)propyl]amino}-1,3,4-oxadiazol-2-yl)phenyl]-2-fluorobenzamide], the “activity in the alpha 7 assay” value was “not found to have activity”.

`CCN(CC)CCCNc1nnc(-c2ccc(NC(=O)c3ccc(OC)cc3)cc2)o1` [N-[4-(5-{[3-(Diethylamino)propyl]amino}-1,3,4-oxadiazol-2-yl)phenyl]-4-(methyloxy)benzamide]: the “activity in the alpha 7 assay” value is recorded as “not found to have activity”.

With `CCCN(CCC)CCCNc1nnc(-c2ccc(NC(=O)c3ccccc3F)cc2)o1` [N-[4-(5-{[3-(dipropylamino)propyl]amino}-1,3,4-oxadiazol-2-yl)phenyl]-2-fluorobenzamide], the “activity in the alpha 7 assay” value is “not found to have activity”.
